Data as given in PubChem BioAssay (NCI).
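Method: 48-hour compound exposure of cells in 96-well plates, five concentrations, linear interpolation of endpoints. Abbreviation: GI50, concentration required for 50% inhibition of growth. TGI: concentration producing complete growth inhibition.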

Legend:
Experiment in all cases: growth of human tumour cells (NCI), 48 h
786-0 renal = tested on: 786-0 renal
A498 renal = tested on: A498 renal
A549 NSCLC = tested on: A549 NSCLC
ACHN renal = tested on: ACHN renal
BT-549 breast = tested on: BT-549 breast
CAKI-1 renal = tested on: CAKI-1 renal
CCRF-CEM leukemia = tested on: CCRF-CEM leukemia
COLO 205 colon = tested on: COLO 205 colon
DU-145 prostate = tested on: DU-145 prostate
HCC-2998 colon = tested on: HCC-2998 colon
HCT-116 colon = tested on: HCT-116 colon
HCT-15 colon = tested on: HCT-15 colon
HL-60(TB) leukemia = tested on: HL-60(TB) leukemia
HOP-62 NSCLC = tested on: HOP-62 NSCLC
HS 578T breast = tested on: HS 578T breast
HT29 colon = tested on: HT29 colon
IGROV1 ovarian = tested on: IGROV1 ovarian
K-562 leukemia = tested on: K-562 leukemia
KM12 colon = tested on: KM12 colon
M14 melanoma = tested on: M14 melanoma
MALME-3M melanoma = tested on: MALME-3M melanoma
MCF7 breast = tested on: MCF7 breast
MDA-MB-231 breast = tested on: MDA-MB-231 breast
MDA-MB-435 = tested on: MDA-MB-435
NCI-H226 lung = tested on: NCI-H226 lung
NCI-H23 lung = tested on: NCI-H23 lung
NCI-H460 lung = tested on: NCI-H460 lung

COc1ccc(C(=O)c2sc3nc(-c4ccccc4OC)ccc3c2N)cc1OC
GI50 (786-0 renal): 11.7 µM
TGI (786-0 renal): > 100 µM
GI50 (A498 renal): 3.38 µM
TGI (A498 renal): > 100 µM
GI50 (A549 NSCLC): 5.85 µM
TGI (A549 NSCLC): > 100 µM
GI50 (ACHN renal): 7.24 µM
TGI (ACHN renal): > 100 µM
GI50 (BT-549 breast): 3.14 µM
TGI (BT-549 breast): 17 µM
GI50 (CAKI-1 renal): 27.6 µM
TGI (CAKI-1 renal): > 100 µM
GI50 (CCRF-CEM leukemia): 4.07 µM
TGI (CCRF-CEM leukemia): > 100 µM
GI50 (COLO 205 colon): 8.9 µM
TGI (COLO 205 colon): > 100 µM
GI50 (DU-145 prostate): 27.9 µM
TGI (DU-145 prostate): > 100 µM
GI50 (HCC-2998 colon): 9.71 µM
TGI (HCC-2998 colon): > 100 µM
GI50 (HCT-116 colon): 5.55 µM
TGI (HCT-116 colon): > 100 µM
GI50 (HCT-15 colon): 6.13 µM
TGI (HCT-15 colon): > 100 µM
GI50 (HL-60(TB) leukemia): 4.07 µM
TGI (HL-60(TB) leukemia): > 100 µM
GI50 (HOP-62 NSCLC): 18.7 µM
TGI (HOP-62 NSCLC): > 100 µM
GI50 (HS 578T breast): 4.26 µM
TGI (HS 578T breast): 74.2 µM
GI50 (HT29 colon): 4.9 µM
TGI (HT29 colon): > 100 µM
GI50 (IGROV1 ovarian): 20.3 µM
TGI (IGROV1 ovarian): > 100 µM
GI50 (K-562 leukemia): 5.1 µM
TGI (K-562 leukemia): > 100 µM
GI50 (KM12 colon): 9.67 µM
TGI (KM12 colon): > 100 µM
GI50 (M14 melanoma): 6.05 µM
TGI (M14 melanoma): > 100 µM
GI50 (MALME-3M melanoma): 3.65 µM
TGI (MALME-3M melanoma): > 100 µM
GI50 (MCF7 breast): 4.75 µM
TGI (MCF7 breast): > 100 µM
GI50 (MDA-MB-231 breast): 3.44 µM
TGI (MDA-MB-231 breast): 42.3 µM
GI50 (MDA-MB-435): 4.25 µM
TGI (MDA-MB-435): > 100 µM
GI50 (NCI-H226 lung): 5.13 µM
TGI (NCI-H226 lung): > 100 µM
GI50 (NCI-H23 lung): 50.1 µM
TGI (NCI-H23 lung): > 100 µM
GI50 (NCI-H460 lung): 9.61 µM
